Columns and labels:
MMP-9 = target: T1, MMP-9 (Homo sapiens, UniProt P14780); assay: Assay for inhibitory activity against MMP-9; format: biochemical
T1 construct: made in house; host or cells: HT1080 human fibrosarcoma cells; endogenous protein secreted after TPA treatment and purified from conditioned medium
Experimental: (§1) Assay for Inhibitory Activities of MMP-9 and MMP-2
(§2) The enzymatic activity was analyzed on the method described by Knight, C. G., et al. (C. Graham Knight., Frances Willenbrock and Gillian Murphy: A novel coumarin-labelled peptide for sensitive continuous assays of the matrix metalloproteinases. FEBS Lett., 296 (1992) 263-266).
MMP-9 was purified by using a combination of procedures described in previous reports as follows. Yasunori Okada, Yukio Gonoji, Katsumi Naka, Katsuro Tomita, Isao Nakanishi, Kazushi Iwata and Taro Hayakawa: Matrix metalloproteinase 9 (92-kDa gelatinase/type IV collagenase) from HT1080 human fibrosarcoma cells. Purification and activation of the precursor and enzymic properties. J. Biol. Chem., 267 (1992) 21712-21719. Yasunori Okada, Tatsuhisa Morodomi, Jan J, Enghild, Ko Suzuki, Atsushi Yasui, Isao Nakanishi, Guy Salvesen and Hideaki Nagase: Matrix metalloproteinase 2 from human rheumatoid synovial fibroblasts. Purification and activation of the precursor and enzymic properties. Eur. J. Biochem. 194 (1990) 721-730. Robin V Ward, Rosalind M Hembry, John J Reynolds and Gillian Murphy: The purification of tissue inhibitor of metalloproteinase-2 from its 72 kDa progelatinase complex. Biochem. J. 278 (1991) 179-187.
Briefly, human fibrosarcoma ATCC HT1080 cell line was cultured to confluent in Dulbecco's Modified Medium (DMEM) containing 10% fetal-calf serum at 37° C. for 48 hours. Subsequently, the medium of confluent culture was changed to serum-free DMEM medium. To obtain MMP-9, Phorbol-12-myristate-13-acetate (TPA) must be added to this serum-free DMEM medium at a concentration of 50 ng/ml. The TPA treated medium was centrifuged at 3000 rpm for 15 min and the supernatant was concentrated to 450 ml by a Toyo-Roshi UP-20 apparatus with an ultrafiltration membrane. Then, proMMP-9 in this concentrated solution was purified by using columns of Gelatin-Sepharose and Concanavalin A-Sepharose. The pool containing proMMP-9 was dialyzed, concentrated (Toyo-Roshi UP-20) and applied to columns of Sephacryl S-200 and Green A matrix for the separation from TIMPs. The obtained proMMP-9 fraction was activated by TPCK-Trypsin (final conc. […] reaction mix.) for the assay.
(§3) MOCAc-Pro-Leu-Gly-Leu-A2pr(Dnp)-Ala-Arg-NH2 as a substrate was purchased from Petide Institute(Osaka pref., Japan). This substrate was dissolved in DMSO at a concentration of 1 mM.
(§4) Reaction buffer consists of 50 mM Tris-HCl buffer (pH 7.5) containing 10 mM CaCl2, 0.3 M NaCl, 0.005% Brij35 and 0.01% NaN3.
Assay Method of Inhibitory Activity Against MMP-9:
(§5) 1.0 μl of a tested compound in DMSO is added to 48.0 μl of a reaction buffer containing 0.08 μl of an enzyme solution. After standing for 60 minutes at room temperature, the reaction was started by adding 1.0 μl of a substrate solution. After incubation for 60 minutes at room temperature, 100 μl of 3% (v/v) AcOH for reaction stopping and measured a fluorescence with excitation and emission at 320 nm and 405 nm, respectively (Spectrophotofluorometer; Fluoroscan Ascent (Labsystem)).
(§6) The measurement of the inhibitory activities (IC50) was carried out in a following four methods;
(§7) A) Reaction with substrate, enzyme and inhibitor
(§8) B) Reaction with substrate and inhibitor, without enzyme
(§9) C) Reaction with substrate and enzyme, without inhibitor
(§10) D) Reaction with substrate only
(§11) IC50 values were calculated by using a following formula and each fluorescence values of above four methods (A to D).
(§12) % inhibition={1−(A−B)/(C−D)}×100
(§13) IC50 means the concentration required to inhibit 50% of the enzyme activity.

MMP-2 = target: T2, MMP-2 (Homo sapiens, UniProt P08253); assay: Assay for inhibitory activity against MMP-2; format: biochemical
T2 construct: purchased Yagai (Yamagata pref., Japan)
T2 sequence (P08253 110-660): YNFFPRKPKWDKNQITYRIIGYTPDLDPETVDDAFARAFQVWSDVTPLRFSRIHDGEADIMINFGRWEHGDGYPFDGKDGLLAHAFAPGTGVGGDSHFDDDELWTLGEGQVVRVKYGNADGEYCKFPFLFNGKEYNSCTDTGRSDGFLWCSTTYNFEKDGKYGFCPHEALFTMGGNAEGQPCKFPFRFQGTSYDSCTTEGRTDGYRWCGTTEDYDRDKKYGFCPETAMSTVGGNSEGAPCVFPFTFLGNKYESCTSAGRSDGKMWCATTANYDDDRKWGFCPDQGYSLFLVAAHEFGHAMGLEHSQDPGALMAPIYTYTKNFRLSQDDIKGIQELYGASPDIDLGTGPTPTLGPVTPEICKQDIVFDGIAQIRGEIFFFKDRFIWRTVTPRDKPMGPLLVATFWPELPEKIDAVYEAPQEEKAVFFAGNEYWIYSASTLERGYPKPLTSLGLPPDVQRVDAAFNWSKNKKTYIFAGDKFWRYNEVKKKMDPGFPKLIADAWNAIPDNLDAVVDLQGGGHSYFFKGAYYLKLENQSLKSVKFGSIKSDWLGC
Experimental: as §1, §2
MMP-2 was purchased from Yagai (Yamagata pref., Japan).
as §3, §4
Assay Method of Inhibitory Activity Against MMP-2:
as §5, with “0.05” for “0.08”
as §6, §7, §8, §9, §10, §11, §12, §13

[1] = tested on: E30 monoclonal antibody-induced glomerulonephritis in Slc-Wistar rats; assay: Urinary protein excretion in E30 monoclonal antibody-induced glomerulonephritis rats; format: in vivo, rat; details: urinary protein excretion on day 2 after E30 injection, compound-treated vs vehicle-treated group, oral, 100 mg once a day, first dose 2 hours before E30
Experimental: Five to eight weeks old male Slc-Wistar rats were used in the experiment.
In order to induce glomerulonephritis, E30 of 20 to 500 μg, preferably 50 to 200 μg, is intravenously injected to rats of five to eight weeks old. Test compounds of 0.1 to 500 mg, preferably 1 to 200 mg, are suspended with 3 to 10%, preferably 4 to 6%, gum arabic solution and the like, and are orally given 1 to 5 hours, preferably 1.5 to 3 hours, prior to E30 injection. Constant amount of test compounds are then consecutively given 1 to 3 times a day. Evaluation of test compounds are determined by the amount of urinary protein excretion 2 days after E30 injection when proteinuria reaches to the maximum level.
Determination of the amount of urinary protein excretion is performed by the collection of 24-hour urine samples with stainless metabolic cages followed by the measurement of the concentration of urinary protein. Blood samples obtained at the follow-up period are processed for the determination of blood urea nitrogen and plasma creatinine, which indicate renal function. As a marker of damaged renal tubules, urinary amounts of N-acetyl-D-glycosaminidase excretion is measured. Furthermore, to study the inhibitory effects of compounds on mesangial proliferation following E30 injection, the number of PCNA (proliferating cell nuclear antigen) positive cells per single glomerulus is counted. Morphological changes are observed with light and electron microscopy.
5-week-old male Slc-Wistar rats were reared under the conditions of room temperature of 25° C., 40-60% humidity and 12 hour cycles of light and darkness and fed on solid chow (CA-1, Clea Japan) and tap water ad libitum. After one week's preliminary rearing, each rat was housed in a stainless metabolic cage for acclimation for one week, and was used for experiment at 7 weeks of old (body weight: 150-180 g). E30 monoclonal antibody (J.J.N., vol. 36, p106, 1994) was diluted with saline at 100 μg/0.4 ml and was administered from tail vein at the volume of 0.4 ml/body. Compound (2) was suspended with 5% gum arabic solution and was given at the dose of 100 mg 2 hours before E30 injection. Subsequently, compound (2) of 100 mg was orally administered once a day from the next day. The rats were housed in stainless metabolic cages just after the administration of test compound, and then 24-hour urine samples were collected. After measuring the volume, the urine was centrifuged at 3000 rpm for 10 min at room temperature. […] Urinary protein was determined by pyrogallole red method (Micro TP-test Wako, Wako Zyunyaku). The amount of urinary protein excretion on day 2 in compound-treated group was compared with that in vehicle-treated one, and inhibitory ratio of urinary protein excretion was calculated. […]

T1 sequence (P14780 107-707 limits assumed): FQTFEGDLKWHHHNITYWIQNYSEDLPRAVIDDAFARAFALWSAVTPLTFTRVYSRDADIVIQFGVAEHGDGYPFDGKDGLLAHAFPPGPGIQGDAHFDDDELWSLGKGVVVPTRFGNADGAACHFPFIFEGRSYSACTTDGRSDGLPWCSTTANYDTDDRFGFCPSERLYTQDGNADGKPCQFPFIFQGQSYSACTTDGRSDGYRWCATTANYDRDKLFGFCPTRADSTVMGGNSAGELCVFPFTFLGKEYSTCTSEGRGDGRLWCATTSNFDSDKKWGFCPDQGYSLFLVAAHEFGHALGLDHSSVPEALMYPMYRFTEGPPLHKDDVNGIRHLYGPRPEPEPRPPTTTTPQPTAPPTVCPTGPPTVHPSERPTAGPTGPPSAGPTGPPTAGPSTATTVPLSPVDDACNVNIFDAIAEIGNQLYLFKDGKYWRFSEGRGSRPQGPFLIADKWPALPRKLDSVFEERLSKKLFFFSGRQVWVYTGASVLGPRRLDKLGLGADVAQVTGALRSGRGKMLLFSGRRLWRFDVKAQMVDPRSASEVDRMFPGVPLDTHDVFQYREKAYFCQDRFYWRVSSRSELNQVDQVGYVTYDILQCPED

SMILES | IC50 (MMP-9) | IC50 (MMP-2) | melting point | Inhibitory rate (%) of urinary protein excretion [1]
Cc1ccc(C#Cc2ccc(S(=O)(=O)N[C@H](Cc3ccccc3)C(=O)O)s2)s1 [Compound 87] | 10 nM | 3.69 nM | 158 to 160 °C | 
Cc1ccc(-n2nnc(-c3ccc(S(=O)(=O)N[C@H](Cc4ccccc4)C(=O)O)s3)n2)cc1 [Compound 95] | 19 nM | 10.7 nM | 166 to 169 °C | 21%
Cc1ccc(-n2nnc(-c3ccc(S(=O)(=O)N[C@@H](C(=O)O)C(C)C)s3)n2)cc1 [Compound 96] | 36.2 nM | 1.5 nM | 178 to 179 °C | 
CC(C)[C@@H](NS(=O)(=O)c1ccc(-c2nnn(-c3ccc(F)cc3)n2)s1)C(=O)O [Compound 97] | 136 nM | 15.6 nM | 184 to 186 °C | 
CC(C)[C@@H](NS(=O)(=O)c1ccc(-c2ncc(-c3ccccc3)o2)s1)C(=O)O [Compound 98] | 787 nM | 95.3 nM | 220 to 223 °C | 
Cc1ccc(-c2ccc(-c3ccc(S(=O)(=O)N[C@@H](C(=O)O)C(C)C)cc3)s2)cc1 [Compound 103] | 27.8 nM | 6.12 nM |  | 
CC(C)[C@@H](NS(=O)(=O)c1ccc(-n2nnc(-c3ccc(C(F)(F)F)cc3)n2)cc1)C(=O)O [Compound 104] | 18.7 nM | 2.02 nM | 198 to 200 °C | 27%
O=C(O)[C@@H](Cc1ccccc1)NS(=O)(=O)c1ccc(-n2nnc(-c3ccc(F)cc3)n2)cc1 [Compound 105] | 304 nM | 41.4 nM | 190 to 192 °C | 
CC(C)[C@@H](NS(=O)(=O)c1ccc(-n2nnc(-c3ccc(F)cc3)n2)cc1)C(=O)O [Compound 106] | 104 nM | 28.3 nM | 204 to 205 °C | 
CCc1ccc(-c2nnn(-c3ccc(S(=O)(=O)N[C@@H](C(=O)O)C(C)C)cc3)n2)cc1 [Compound 107] | 8.25 nM | 3.51 nM | 186 to 187 °C | 
CCc1ccc(-c2nnn(-c3ccc(S(=O)(=O)N[C@@H](Cc4ccccc4)C(=O)O)cc3)n2)cc1 [Compound 110] | 94.7 nM | 25.7 nM | 188 to 190 °C | 
O=C(O)[C@@H](Cc1c[nH]c2ccccc12)NS(=O)(=O)c1ccc(-n2nnc(-c3ccc(F)cc3)n2)cc1 [Compound 111] | 104 nM | 10.7 nM | 113 to 115 °C | 
CCc1ccc(-c2nnn(-c3ccc(S(=O)(=O)N[C@H](C(=O)O)C(C)C)cc3)n2)cc1 [Compound 112] | 126 nM | 28.4 nM | 179 to 181 °C | 
CCc1ccc(-c2nnn(-c3ccc(S(=O)(=O)N[C@H](CC(C)C)C(=O)O)cc3)n2)cc1 [Compound 113] | 71.8 nM | 5.7 nM | 153 to 154 °C | 
O=C(O)[C@@H](Cc1ccccc1)NS(=O)(=O)c1ccc(-n2nnc(-c3ccccc3)n2)cc1 [Compound 115] | 4610 nM | 181 nM | 191 to 192 °C | 
CCc1ccc(-c2nnn(-c3ccc(S(=O)(=O)N[C@H](C)C(=O)O)cc3)n2)cc1 [Compound 117] | 31 nM | 2.62 nM | 155 to 157 °C | 
CCOc1ccc(-c2nnn(-c3ccc(S(=O)(=O)N[C@@H](C(=O)O)C(C)C)cc3)n2)cc1 [Compound 118] | 61.6 nM | 2.16 nM | 187 to 189 °C | 
CC(C)[C@@H](NS(=O)(=O)c1ccc(-n2nnc(-c3ccc(N(C)C)cc3)n2)cc1)C(=O)O [Compound 119] | 45.5 nM | 1.69 nM | 185 to 188 °C | 
CSc1ccc(-c2nnn(-c3ccc(S(=O)(=O)N[C@@H](C(=O)O)C(C)C)cc3)n2)cc1 [Compound 120] | 5.82 nM | 0.919 nM | 194 to 196 °C | 
CCCCc1ccc(-c2nnn(-c3ccc(S(=O)(=O)N[C@@H](C(=O)O)C(C)C)cc3)n2)cc1 [Compound 121] | 148 nM | 0.561 nM | 191 to 193 °C | 
